Patent US20230406865A1, “CRYSTAL FORM OF FREE BASE OF INHIBITOR CONTAINING BICYCLIC RING DERIVATIVE AND PREPARATION METHOD AND APPLICATION OF CRYSTAL FORM” (SHANGHAI HANSOH BIOMEDICAL CO., LTD., priority 2020, published 2023)

Columns and labels:
Ba/F3 KIF5B-RET cells = molecular target: T1, Ba/F3 KIF5B-RET cells (Homo sapiens, UniProt P07949); assay: Inhibition of proliferation of Ba/F3 KIF5B-RET cells (CellTiter-Glo); format: cell-based; conditions: 72 to 144 hours
T1 construct: fused on or other part: P33176 (Kinesin-1 heavy chain)
Method: When Ba/F3 KIF5B-RET cells were cultured to the appropriate cell density, cells were collected, and the cells were adjusted to the appropriate cell concentration using complete medium, and the cell suspension was spread in a 96-well plate, 90 μL per well, and placed in the wall of a 37° C., 5% CO2 incubator overnight; compound solutions of different concentrations were prepared using DMSO and culture medium; a solvent control was set, and the compound solution was added to a 96-well plate with […] at 37° C. in a 5% CO2 incubator for 72 to 144 hours, CellTiter-Glo solution was added thereto and mixed well by shaking, incubated for 10 minutes in the dark, and read by BioTek Synergy H1 microplate reader.
The IC50 values were obtained by using the luminescence signal values to calculate the inhibition rate, the concentrations and the inhibition rates were fitted to a nonlinear regression curve using Graphpad Prism software.

RET kinase = molecular target: T2, RET kinase (Homo sapiens, UniProt P07949); assay: HTRF kinase activity inhibition, RET wild-type; format: biochemical; conditions: ATP at Km
T2 construct: purchased Carna 08-159
Excerpt: 2.2 Experimental Reagents: • RET enzyme was purchased from Carna Company, and the article number was 08-159; • RET M918T enzyme was purchased from Carna Company, and the article number was 08-508; • KIF5B-RET was purchased from SignalChem Company, the article number was R02-19FG-05; • CCDC6-RET was purchased from SignalChem Company, the article number was R02-19BG-05; • RET V804M enzyme was purchased from Thermofisher Company, and the article number was PV6223; • RET V804L enzyme was purchased from Thermofisher Company, and the article number was PV4397; • HTRF KinEASE-TK kit was purchased from Cisbio Company, and the article number was 62TK0PEC; • ATP was purchased from Thermofisher Company, and the article number was PV3227; • 384-well plate was purchased from PerkinElmer Company, and the article number was 6007290.
In this experiment, a homogeneous time-resolved fluorescence (HTRF) method was used for the detection of compounds on RET kinase activity.

KDR kinase = molecular target: T3, KDR kinase (Homo sapiens, UniProt P35968); assay: HTRF kinase activity inhibition, KDR; format: biochemical; conditions: for IC50: HTRF, ATP at Km; for Ratio (KDR/RET): KDR IC50 / RET IC50
T3 construct: purchased Carna 08-191
Excerpt: 2.2 Experimental Reagents: • KDR kinase was purchased from Carna Company, and the article number was 08-191; • HTRF KinEASE-TK kit was purchased from Cisbio Company, and the article number was 62TK0PEC; • ATP was purchased from Thermofisher Company, and the article number was PV3227; • 384-well plate was purchased from PerkinElmer Company, and the article number was 6007290.
In this experiment, the homogeneous time-resolved fluorescence (HTRF) method was used for the detection of compounds on KDR kinase activity.

[1] = system: TT cells (MTC, RET C634W); assay: Inhibition of proliferation of TT cells (CellTiter-Glo, 72 h); format: cell-based; conditions: Homo sapiens
Method: TT cells were purchased from the cell bank of the Chinese Academy of Sciences.
When TT cells were cultured to the appropriate fusion level, TT cells were collected, and the cells were adjusted to the appropriate cell concentration using complete medium, and the cell suspension was spread in a 96-well plate, 90 μL per well, and placed to the wall of a 37° C., 5% CO2 incubator overnight; and compound solutions of different concentrations were prepared using DMSO and culture medium; and a solvent control was set, the compound solution was added to a 96-well plate, 10 μL per well, and placed to the wall of a 37° C., 5% CO2 incubator for 72 hours; CellTiter-Glo solution was added thereto and the mixture was mixed well by shaking, incubated for 10 minutes in the dark, and read by BioTek Synergy H1 microplate reader.
The IC50 values were obtained by using luminescence signal values to calculate the inhibition rate, the concentration and the inhibition rate were fitted to a nonlinear regression curve using Graphpad Prism software.

[2] = Balb/C mouse pharmacokinetics, oral 5 mg/kg; format: in vivo, Balb/C mice; conditions: male, p.o. 5 mg/kg, plasma; for MRT: read-out: Average residence time MRT; for Cmax: read-out: Blood concentration Cmax; for AUC(0-t): read-out: Curve area AUC0-t; for AUC(0-inf): read-out: Curve area AUC0-∞; for half-life: read-out: Half-life t1/2 (converted); for Tmax: read-out: Peak time tmax
Method: The pharmacokinetic behavior of the following compound embodiments, administered orally at a dose of 5 mg/kg in plasma in mice, was studied using Balb/C mice as test animals.
Balb/C Mouse 6/embodiment, male, Shanghai Jiesijie Laboratory Animal Co., Ltd, Animal Production License No. (SCXK (Shanghai) 2013-0006 N0.311620400001794).
Balb/C mice, males; p.o. after overnight fasting, respectively, at a dose of 5 mg/kg, administered in a volume of 10 mL/kg.
0.5% CMC-Na (1% Tween80) was dissolved by ultrasound, and prepared into clear solution or uniform suspension.
Before and after administration, 0.1 mL of blood was collected from mice at 0, 0.5, 1, 2, 4, 6, 8 and 24 hours by orbital collection, placed in EDTA-K2 tubes, centrifuged at 6000 rpm at 4° C. for 6 minutes to separate plasma, and stored at −80° C.
2.5 Sample Handling: • 1) 40 μL of plasma sample was precipitated by adding 160 μL of acetonitrile, mixed and centrifuged at 3500×g for 5-20 minutes. • 2) 100 μL of the supernatant solution after treatment was taken to analyze the concentration of the test compound by LC/MS/MS.
2.6 Liquid Phase Analysis • Liquid phase conditions: Shimadzu LC-20AD pump • Mass spectrometry conditions: AB Sciex API 4000 mass spectrometer • Chromatographic column: phenomenex Gemiu 5 μM C18 50×4.6 mm • Mobile phase: Liquid A was 0.1% formic acid aqueous solution, liquid B was acetonitrile • Flow rate: 0.8 mL/min • Elution time: 0-4.0 minutes, the eluent was as follows:
The main pharmacokinetic parameters were calculated by WinNonlin 6.1 and the results of the mouse pharmacokinetic experiments were shown in Table 13 below.

T3 sequence (P35968 20-1356): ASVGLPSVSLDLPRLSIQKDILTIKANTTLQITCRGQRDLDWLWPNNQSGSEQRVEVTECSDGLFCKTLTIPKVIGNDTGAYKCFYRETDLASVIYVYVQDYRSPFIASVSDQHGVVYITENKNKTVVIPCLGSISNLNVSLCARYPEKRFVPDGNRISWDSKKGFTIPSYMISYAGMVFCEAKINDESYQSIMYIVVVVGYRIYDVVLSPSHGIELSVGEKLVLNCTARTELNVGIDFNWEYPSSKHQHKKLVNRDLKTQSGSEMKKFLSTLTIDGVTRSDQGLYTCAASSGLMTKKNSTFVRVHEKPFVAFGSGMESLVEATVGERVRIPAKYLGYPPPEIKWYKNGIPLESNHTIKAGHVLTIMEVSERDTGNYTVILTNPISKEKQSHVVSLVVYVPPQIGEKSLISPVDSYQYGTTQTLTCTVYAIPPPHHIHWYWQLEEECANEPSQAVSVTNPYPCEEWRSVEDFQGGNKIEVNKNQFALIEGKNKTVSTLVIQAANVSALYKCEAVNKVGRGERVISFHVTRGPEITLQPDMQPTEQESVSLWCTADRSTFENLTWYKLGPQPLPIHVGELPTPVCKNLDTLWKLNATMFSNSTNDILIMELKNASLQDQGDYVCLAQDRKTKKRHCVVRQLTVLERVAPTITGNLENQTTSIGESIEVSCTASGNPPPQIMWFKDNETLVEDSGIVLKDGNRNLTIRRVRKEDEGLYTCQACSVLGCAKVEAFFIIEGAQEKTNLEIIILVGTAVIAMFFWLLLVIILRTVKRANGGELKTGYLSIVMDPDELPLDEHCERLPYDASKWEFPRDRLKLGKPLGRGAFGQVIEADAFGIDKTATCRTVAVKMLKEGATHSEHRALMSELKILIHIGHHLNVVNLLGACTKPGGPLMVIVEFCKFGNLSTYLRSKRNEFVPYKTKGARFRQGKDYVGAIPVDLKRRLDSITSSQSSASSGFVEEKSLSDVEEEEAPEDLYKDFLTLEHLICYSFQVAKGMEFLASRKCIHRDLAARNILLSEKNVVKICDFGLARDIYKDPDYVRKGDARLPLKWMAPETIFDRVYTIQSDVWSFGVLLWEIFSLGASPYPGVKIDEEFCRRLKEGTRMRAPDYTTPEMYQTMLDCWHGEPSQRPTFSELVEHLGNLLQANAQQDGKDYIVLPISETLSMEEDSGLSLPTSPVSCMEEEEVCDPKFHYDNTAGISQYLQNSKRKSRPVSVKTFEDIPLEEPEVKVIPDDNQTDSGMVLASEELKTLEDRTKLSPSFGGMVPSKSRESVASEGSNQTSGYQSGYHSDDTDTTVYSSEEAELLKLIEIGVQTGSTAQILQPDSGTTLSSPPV
T2 sequence (P07949 29-1114): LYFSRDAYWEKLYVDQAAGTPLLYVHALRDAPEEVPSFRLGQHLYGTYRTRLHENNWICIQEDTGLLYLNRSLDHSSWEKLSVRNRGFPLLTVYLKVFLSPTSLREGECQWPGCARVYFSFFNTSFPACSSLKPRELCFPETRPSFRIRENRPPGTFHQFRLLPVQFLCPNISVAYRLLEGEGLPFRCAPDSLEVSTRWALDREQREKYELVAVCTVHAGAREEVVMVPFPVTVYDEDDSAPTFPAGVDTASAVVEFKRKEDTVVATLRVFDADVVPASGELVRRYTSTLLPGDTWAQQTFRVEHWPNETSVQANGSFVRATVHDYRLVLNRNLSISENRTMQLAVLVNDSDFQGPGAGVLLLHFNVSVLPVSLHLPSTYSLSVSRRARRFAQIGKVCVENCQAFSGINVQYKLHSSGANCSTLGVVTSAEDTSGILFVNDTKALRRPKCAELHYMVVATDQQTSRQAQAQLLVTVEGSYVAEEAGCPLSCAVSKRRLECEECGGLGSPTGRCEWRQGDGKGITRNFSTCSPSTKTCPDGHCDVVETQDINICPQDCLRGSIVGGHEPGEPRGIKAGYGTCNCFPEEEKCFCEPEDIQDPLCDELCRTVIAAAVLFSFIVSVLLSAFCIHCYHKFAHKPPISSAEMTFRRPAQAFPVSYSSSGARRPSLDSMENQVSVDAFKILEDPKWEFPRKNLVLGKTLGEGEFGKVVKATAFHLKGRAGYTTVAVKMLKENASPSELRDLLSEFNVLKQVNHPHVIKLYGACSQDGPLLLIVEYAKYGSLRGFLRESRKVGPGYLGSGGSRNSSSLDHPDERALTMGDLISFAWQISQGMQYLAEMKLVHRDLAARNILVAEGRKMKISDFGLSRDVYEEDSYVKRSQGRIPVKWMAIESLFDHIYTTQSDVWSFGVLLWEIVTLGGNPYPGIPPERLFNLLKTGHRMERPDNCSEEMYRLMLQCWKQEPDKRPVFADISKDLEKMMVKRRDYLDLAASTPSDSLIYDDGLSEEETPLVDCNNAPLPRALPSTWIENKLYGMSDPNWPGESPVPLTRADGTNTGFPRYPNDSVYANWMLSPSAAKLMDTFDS
T1 sequence (P07949 whole entry, change not shown, the tested form may be a part): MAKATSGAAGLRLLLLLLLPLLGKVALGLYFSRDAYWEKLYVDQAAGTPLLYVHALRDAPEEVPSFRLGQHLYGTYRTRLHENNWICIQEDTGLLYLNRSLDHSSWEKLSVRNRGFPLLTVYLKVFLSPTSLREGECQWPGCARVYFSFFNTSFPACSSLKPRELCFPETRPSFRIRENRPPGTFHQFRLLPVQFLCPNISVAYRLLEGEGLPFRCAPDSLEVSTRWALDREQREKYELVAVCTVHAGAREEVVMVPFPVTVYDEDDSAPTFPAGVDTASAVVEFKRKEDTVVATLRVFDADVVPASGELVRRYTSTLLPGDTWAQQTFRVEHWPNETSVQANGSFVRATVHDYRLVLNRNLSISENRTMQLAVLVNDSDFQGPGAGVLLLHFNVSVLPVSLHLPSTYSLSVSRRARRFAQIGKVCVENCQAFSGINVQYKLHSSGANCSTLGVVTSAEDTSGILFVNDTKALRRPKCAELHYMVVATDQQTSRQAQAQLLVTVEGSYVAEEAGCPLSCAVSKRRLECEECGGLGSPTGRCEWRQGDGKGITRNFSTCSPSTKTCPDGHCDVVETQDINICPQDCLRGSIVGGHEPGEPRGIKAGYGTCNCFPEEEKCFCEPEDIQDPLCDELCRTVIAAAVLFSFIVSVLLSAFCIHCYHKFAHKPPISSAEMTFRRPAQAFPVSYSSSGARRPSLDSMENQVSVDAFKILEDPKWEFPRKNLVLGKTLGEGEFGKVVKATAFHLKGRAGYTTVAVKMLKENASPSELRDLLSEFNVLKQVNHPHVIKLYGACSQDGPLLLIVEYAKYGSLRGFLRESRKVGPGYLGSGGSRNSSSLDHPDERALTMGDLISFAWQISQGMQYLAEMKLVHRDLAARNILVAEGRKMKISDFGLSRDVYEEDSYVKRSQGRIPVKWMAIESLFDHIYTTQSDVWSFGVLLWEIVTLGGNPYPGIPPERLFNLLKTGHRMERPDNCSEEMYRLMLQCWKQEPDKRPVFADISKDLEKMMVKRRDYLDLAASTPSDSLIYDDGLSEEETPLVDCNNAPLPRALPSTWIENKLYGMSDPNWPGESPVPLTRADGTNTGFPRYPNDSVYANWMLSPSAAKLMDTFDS

| SMILES | IC50 (Ba/F3 KIF5B-RET cells) [nM] | IC50 (RET kinase) [nM] | IC50 (KDR kinase) [nM] | Ratio (KDR/RET) (KDR kinase) | IC50 [1] [nM] | MRT [2] [h] | Cmax [2] [ng/mL] | AUC(0-t) [2] [ng·h/mL] | AUC(0-inf) [2] [ng·h/mL] | half-life [2] [h] | Tmax [2] [h] |
| --- | --- | --- | --- | --- | --- | --- | --- | --- | --- | --- | --- |
| COc1ccc(CN2C3CC2CN(c2ccc(-c4cc(C#CC(O)C5CC5)cn5ncc(C#N)c45)cn2)C3)cn1 (stereo not drawn) [Embodiment 19, 6-(3-Cyclopropyl-3-hydroxyprop-1-yn-1-yl)-4-(6-(6-((6-methoxypyridin-3-yl)methyl)-3,6-diazabicyclo[3.1.1]heptan-3-yl)pyridin-3-yl)pyrazolo[1,5-a]pyridine-3-carbonitrile] | 27.8 | – | – | – | – | – | – | – | – | – | – |
| COCC(C)(O)C#Cc1cc(-c2ccc(N3CC4CC(C3)N4Cc3cnc(OC)c(F)c3)nc2)c2c(C#N)cnn2c1 (stereo not drawn) [Embodiment 61, 4-(6-(6-((5-Fluoro-6-methoxypyridin-3-yl)methyl)-3,6-diazabicyclo[3.1.1]heptan-3-yl)pyridin-3-yl)-6-(3-hydroxy-4-methoxy-3-methylbut-1-yn-1-yl)pyrazolo[1,5-a]pyridine-3-carbonitrile] | 16.8 | 0.35 | 11.2 | 32 | – | – | – | – | – | – | – |
| COc1ccc(CN2C3CC2CN(c2ccc(-c4cc(OCC56CC(O)(C5)C6)cn5ncc(C#N)c45)cn2)C3)cn1 [Embodiment 47, 6-((3-Hydroxybicyclo[1.1.1]pentan-1-yl)methoxy)-4-(6-(6-((6-methoxypyridin-3-yl)methyl)-3,6-diazabicyclo[3.1.1]heptan-3-yl)pyridin-3-yl)pyrazolo[1,5-a]pyridine-3-carbonitrile] | – | 0.4 | 176 | 438 | 13.3 | – | – | – | – | – | – |
| COc1ccc(CN2C3CC2CN(c2ccc(-c4cc(OCC5CCS(=N)(=O)CC5)cn5ncc(C#N)c45)cn2)C3)cn1 (stereo not drawn) [Embodiment 54, 6-((1-Imino-1-hydroxyhexahydro-1l6-thiopyran-4-yl)methoxy)-4-(6-(6-((6-methoxypyridin-3-yl)methyl)-3,6-diazabicyclo[3.1.1]heptan-3-yl)pyridin-3-yl)pyrazolo[1,5-a]pyridine-3-carbonitrile] | – | 0.34 | 9 | 26 | 9 | – | – | – | – | – | – |
| COc1ccc(CN2C3CC2CN(c2ccc(-c4cc(C#C[C@H](C)O)cn5ncc(C#N)c45)cn2)C3)cn1 [Embodiment 21, 6-((S)-3-Hydroxybut-1-yn-1-yl)-4-(6-(6-((6-methoxypyridin-3-yl)methyl)-3,6-diazabicyclo[3.1.1]heptan-3-yl)pyridin-3-yl)pyrazolo[1,5-a]pyridine-3-carbonitrile] | – | 0.41 | 9.4 | 23 | 18.1 | – | – | – | – | – | – |
| COc1ccc(CN2C3CC2CN(c2ccc(-c4cc(OCC5(C#N)CC5)cn5ncc(C#N)c45)cn2)C3)cn1 [Embodiment 27, 6-((1-Cyanocyclopropyl)methoxy)-4-(6-(6-((6-methoxypyridin-3-yl)methyl)-3,6-diazabicyclo[3.1.1]heptan-3-yl)pyridin-3-yl)pyrazolo[1,5-a]pyridine-3-carbonitrile] | 15.9 | 0.32 | 88 | 280 | – | – | – | – | – | – | – |
| [2H]C([2H])([2H])Oc1ccc(CN2C3CC2CN(c2ccc(-c4cc(N5CC(C(C)(C)O)C5)cn5ncc(C#N)c45)cn2)C3)cn1 [Embodiment 41, 6-(3-(2-Hydroxypropan-2-yl)azetidin-1-yl)-4-(6-(6-((6-(methoxy-d3)pyridin-3-yl)methyl)-3,6-diazabicyclo[3.1.1]heptan-3-yl)pyridin-3-yl)pyrazolo[1,5-a]pyridine-3-carbonitrile] | – | 0.4 | 11 | 27 | 9.45 | – | – | – | – | – | – |
| CC1(NC(=O)c2ncccc2Cl)CCN(c2ccc(-c3cc(OCC4(N)CC4)cn4ncc(C#N)c34)cn2)CC1 [Embodiment 91, N-(1-(5-(6-((1-aminocyclopropyl)methoxy)-3-cyanopyrazolo[1,5-a]pyridin-4-yl)pyridin-2-yl)-4-methylpiperidin-4-yl)-3-chloropicolinamide] | – | 1.54 | 204 | 133 | 29.6 | – | – | – | – | – | – |
| COc1ncc(CN2C3CC2CN(c2ccc(-c4cc(C#C[C@@H](C)O)cn5ncc(C#N)c45)cn2)C3)cc1F [Embodiment 68, 4-(6-(6-((5-Fluoro-6-methoxypyridin-3-yl)methyl)-3,6-diazabicyclo[3.1.1]heptan-3-yl)pyridin-3-yl)-6-((R)-3-hydroxybut-1-yn-1-yl)pyrazolo[1,5-a]pyridine-3-carbonitrile] | 26.3 | 0.44 | 18.9 | 43 | – | 3.47 | 1700 | 7210 | 7220 | 1.73 | 0.5 |
| COc1ccc(CN2C3CC2CN(c2ccc(-c4cc(C#CCC(C)(C)O)cn5ncc(C#N)c45)cn2)C3)cn1 [Embodiment 48, 6-(4-Hydroxy-4-methylpent-1-yn-1-yl)-4-(6-(6-((6-methoxypyridin-3-yl)methyl)-3,6-diazabicyclo[3.1.1]heptan-3-yl)pyridin-3-yl)pyrazolo[1,5-a]pyridine-3-carbonitrile] | – | 0.42 | 13 | 30 | 19.6 | – | – | – | – | – | – |
| COc1ccc(CN2C3CC2CN(c2ccc(-c4cc(OCC5(C#N)CCOCC5)cn5ncc(C#N)c45)cn2)C3)cn1 [Embodiment 59, 6-((4-Cyanotetrahydro-2H-pyran-4-yl)methoxy)-4-(6-(6-((6-methoxypyridin-3-yl)methyl)-3,6-diazabicyclo[3.1.1]heptan-3-yl)pyridin-3-yl)pyrazolo[1,5-a]pyridine-3-carbonitrile] | 34 | 0.58 | 184 | 317 | – | 4.27 | 1330 | 7340 | 7370 | 2.34 | 0.5 |
| COc1ccc(CN2C3CC2CN(c2ccc(-c4cc(N5CC6(C5)CC(C)(O)C6)cn5ncc(C#N)c45)cn2)C3)cn1 [Embodiment 32, 6-(6-Hydroxy-6-methyl-2-azaspiro[3.3]heptan-2-yl)-4-(6-(6-((6-methoxypyridin-3-yl)methyl)-3,6-diazabicyclo[3.1.1]heptan-3-yl)pyridin-3-yl)pyrazolo[1,5-a]pyridine-3-carbonitrile] | – | 0.49 | 1.8 | 4 | 2.07 | – | – | – | – | – | – |
